Test results: US9192619B2 (Peking University Third Hospital, priority 2010, dated 2015)
Values joined by “and” are separate entries in the source; they are usually repeats but may differ in a detail not shown here. Equal entries are not always repeated.

Tested on: permanent focal cerebral ischemia model (MCAO)
Assay: Permanent focal cerebral ischemia model by middle cerebral artery occlusion (MCAO), infarction size by TTC staining of brain slices
Type: in vivo, Sprague Dawley rats
Details: single rats, 12 h ischemia
Experimental: Experimental conditions: Sprague Dawley rats weighing about 250-300 g with a brain tissue volume of 1.5 mL were used. The subjects were divided into eight groups, and each group had eight rats. […] Efficacy validation: two hours after ECS administration and one hour after intraperitoneal injection, a permanent focal cerebral ischemia model was made by middle cerebral artery occlusion (MCAO). The brains of rats from each group were removed 12 hours after cerebral ischemia. The brain slices were obtained by cutting the brain at every 2 mm (5 slices from each rat). Then the slices were stained with 2,3,5-triphenyl-2H-tetrazolium chloride (TTC) for evaluating the cerebral infarction size and the effectiveness of administration of the drug via ECS.

## C[N+](C)(C)CCOP(=O)(O)OP(=O)([O-])OC[C@H]1O[C@@H](n2ccc(N)nc2=O)[C@H](O)[C@@H]1O [CDPC, citicoline]
CDPC 25 mM via brain ECS (caudate nucleus), 0.2 μL/min, 2 μL, MCAO 2 h after administration
  Infarction percentages: 33.7% and 5.6% and 18.6% and 34.1% and 38.1% and 42% and 24.9% and 22.8%
CDPC 40 mM via brain ECS, 0.2 μL/min, 2 μL, MCAO 2 h after administration
  Infarction percentages: 2.3% and 6.7% and 2.2% and 2.9% and 6.9% and 3.6% (2×) and 5.3%
CDPC 50 mM via brain ECS, 0.2 μL/min, 2 μL, MCAO 2 h after administration
  Infarction percentages: 1.3% and 5.7% and 3% and 1.7% and 3.7% and 4.8% and 5% and 7.3%
CDPC 60 mM via brain ECS, 0.2 μL/min, 2 μL, MCAO 2 h after administration
  Infarction percentages: 2.3% and 3.7% and 3.6% and 1.7% and 6.7% and 8.8% and 3.5% and 4.2%
CDPC 75 mM via brain ECS, 0.2 μL/min, 2 μL, MCAO 2 h after administration
  Infarction percentages: 31.2% and 35.8% and 4.0% and 37.8% and 16.1% and 29.8%
CDPC 100 mM via brain ECS, 0.2 μL/min, 2 μL, MCAO 2 h after administration
  Infarction percentages: 29.1% and 35.9% and 20.7% and 8.1% and 38.8% and 20.6% and 11.5% and 41.6%
CDPC 245 mM via brain ECS, 0.2 μL/min, 2 μL, MCAO 2 h after administration
  Infarction percentages: 24.8% and 51.2% and 14.8% and 20% and 26.7% and 18.1% and 48.3% and 33.4%
CDPC 1000 mM intraperitoneal, 1 mL (about 4 mL/kg), 1 mL/min, MCAO 1 h after administration
  Infarction percentages: 30.6% and 26.4% and 10.7% and 5.2% and 25.5% and 27.0% and 33.9% and 32.3%
